In patent US6908734B2, “Sulfated CCR5 peptides for HIV-1 infection” (priority 2000, dated 2005):
Entries after “also recorded” stand apart in the source; their conditions may differ. Where no end group is shown, it is not given here. [ ]: non-standard residue; d: D form. sY = N[C@@H](Cc1ccc(OS(=O)(=O)O)cc1)C(=O)O

Assays:
gp120JR-FL/CD4-IgG2 = assay: CCR5 Nt peptide ELISA with gp120JR-FL/CD4-IgG2; type: binding, HIV-1; conditions: for Avidity for gp120JR-FL/CD4-IgG2 relative to 2-18 (fold lower): ELISA; for Binding of gp120JR-FL/CD4-IgG2 to peptide (ELISA): peptide 1 μg/ml on streptavidin plate
Procedure: Streptavidin-coated ELISA plates (Pierce, Rockford, Ill.) were blocked with D-PBS/5% BSA for 2 hours at room temperature then washed three times with assay buffer (D-PBS/0.5% Tween 20/1% Fetal Bovine Serum/2% BSA). Plates were then contacted with sulfo- or phospho-peptides (1 μg/ml) for 1 hour at room temperature and washed three times with assay buffer. […] The plates were developed using the TMB substrate as described above.

[1] = target: T1, gp120JR-FL/CD4-IgG2 binding to the sulfopeptide 2-18 (Homo sapiens, UniProt P51681); assay: Competition ELISA: gp120JR-FL/CD4-IgG2 binding to sulfopeptide 2-18; set-up: species or system HIV-1; conditions: complex 1 nM, up to supraphysiologic concentrations
T1 construct: a peptide spanning CCR5 residues 2-18 and containing sulfotyrosines in positions 10 and 14; host or cells: peptide synthetic
Procedure: In a competition ELISA, peptides were captured onto the plates as described above. Inhibitor or assay buffer was added for 1 h prior to addition of gp120JR-FL/CD4-IgG2 complex (1 nM) for an additional h at room temperature. The assay was then completed as described above. Direct binding of anti-CCR5 murine MAbs to the peptides was examined as described above except that MAb was substituted for gp120/CD4-IgG2 complex and a goat anti-mouse HRP-coupled antibody was used for detection.

[2] = tested on: gp120JR-FL/CD4-IgG2 complex binding to CCR5; assay: Inhibition of gp120JR-FL/CD4-IgG2 complex binding to L1.2-CCR5+ cells (flow cytometry); type: cell-based, HIV-1; conditions: gp120 100 nM, biotinylated CD4-IgG2 50 nM, different concentrations of peptide
Procedure: A gp120/CD4 complex formed from monomeric gp120 (100 nM) and biotinylated CD4-IgG2 (50 nM) was added to 1×10^6 L1.2-CCR5^+ cells in the presence of different concentrations of peptide (Olson et al. J. Virol. 73:4145, 1999). CD4-IgG2 is tetrameric and therefore binds four molecules of gp120, which increases binding of the complex to CCR5 (Allaway et al. AIDS Res. Hum. Retroviruses 11:533, 1995). The mean fluorescence intensity (m.f.i.) was measured by flow cytometry after addition of phycoerythrin (PE)-labeled streptavidin (Becton Dickinson, San Jose, Calif.). Inhibition of gp120/CCR5 binding was calculated: […].

## 6-16: CCR5 residues 6-16, sulfotyrosines in positions 10 and 14, GAG spacer, biotinylated lysine (SSPI[sY]DIN[sY]YTGAG-{K(biotin)}; UniProt P51681 6-16, looked up, fragment)
gp120JR-FL/CD4-IgG2
  Avidity for gp120JR-FL/CD4-IgG2 relative to 2-18 (fold lower): at least ten-fold less avidly

## 8-15: CCR5 residues 8-15, sulfotyrosines in positions 10 and 14, GAG spacer, biotinylated lysine (PI[sY]DIN[sY]YGAG-{K(biotin)}; UniProt P51681 8-15, looked up, fragment)
gp120JR-FL/CD4-IgG2
  Avidity for gp120JR-FL/CD4-IgG2 relative to 2-18 (fold lower): at least ten-fold less avidly

## 10-18(11A/18A): peptide 10-18 with residues Asp-11 and Glu-18 substituted for alanines ([sY]AIN[sY]YTSA; not fully specified (C-terminus); UniProt P51681 10-18, looked up, variant D11A E18A)
gp120JR-FL/CD4-IgG2
  Binding of gp120JR-FL/CD4-IgG2 to peptide (ELISA): only weakly bound

## 10-18: CCR5 residues 10-18 (YDINYYTSE), sulfotyrosines in positions 10 and 14, GAG spacer, biotinylated lysine ([sY]DIN[sY]YTSEGAG-{K(biotin)})
gp120JR-FL/CD4-IgG2
  Avidity for gp120JR-FL/CD4-IgG2 relative to 2-18 (fold lower): ~3 fold
  Binding of gp120JR-FL/CD4-IgG2 to peptide (ELISA): significant binding; also recorded: avidly bound

## MIP-1α: CC-chemokine known to bind CCR5
[1]
  Inhibition of gp120JR-FL/CD4-IgG2 binding to the sulfopeptide 2-18: not inhibited

## RANTES: CC-chemokine known to bind CCR5
[1]
  Inhibition of gp120JR-FL/CD4-IgG2 binding to the sulfopeptide 2-18: not inhibited

## S-10/14: tyrosine-sulfated peptide spanning amino acids 2-18 of the CCR5 Nt, sulfo-tyrosines in positions 10 and 14 (DYQVSSPI[sY]DIN[sY]YTSE; UniProt P51681 2-18, looked up, fragment)
[2]
  Inhibition of gp120JR-FL/CD4-IgG2 binding to CCR5+ cells: inhibited complex binding to the cells in a dose-dependent manner

## S-10: peptide spanning amino acids 2-18 of the CCR5 Nt, sulfo-tyrosine in position 10 (DYQVSSPI[sY]DINYYTSE; UniProt P51681 2-18, looked up, fragment)
[2]
  Inhibition of gp120JR-FL/CD4-IgG2 binding to CCR5+ cells: no inhibitory activity

## S-14: peptide spanning amino acids 2-18 of the CCR5 Nt, sulfo-tyrosine in position 14 (DYQVSSPIYDIN[sY]YTSE; not fully specified; UniProt P51681 2-18, looked up, fragment)
[2]
  Inhibition of gp120JR-FL/CD4-IgG2 binding to CCR5+ cells: no inhibitory activity

## TS-10/14: peptide spanning amino acids 10-14 of CCR5, two sulfo-tyrosine residues ([sY]DIN[sY])
[2]
  Inhibition of gp120JR-FL/CD4-IgG2 binding to CCR5+ cells: did not inhibit

B1: MIP-1β: CC-chemokine known to bind CCR5 (protein, UniProt P13236 24-92, looked up)
C-C motif chemokine 4: APMGSDPPTACCFSYTARKLPRNFVVDYYETSSLCSQPAVVFQTKRSKQVCADPSESWVQEYVYDLELN
[1]
  Inhibition of gp120JR-FL/CD4-IgG2 binding to the sulfopeptide 2-18: not inhibited
